In ChEMBL document CHEMBL6134868, “Novel Aryl Sulfonium Modification on Vancomycin to Tackle MRSA and VRE In Vitro and In Vivo through Dual Enhanced Cell-Wall and Membrane Inhibition” (J Med Chem, 2025):
In brackets after ≈: the same amount, converted by molar mass. Activity calls are given as the source filed them. No cut-off for these calls is given here.

Experiments:
[1] = Protein binding in plasma (unknown origin); assay type: ADME, cell-free; conditions: read-out: PPB (converted)
Enterococcus faecium [2] = test: Antibacterial activity against vancomycin-resistant Enterococcus faecium Efm-HS-0649 harboring VanA phenotype incubated for 16 to 24 hrs by broth microdilution assay; assay type: functional; conditions: time 16-24 hrs
Enterococcus faecium [3] = test: Antibacterial activity against vancomycin-resistant Enterococcus faecium Efm-HS-vb02 harboring VanB phenotype incubated for 16 to 24 hrs by broth microdilution assay; assay type: functional; conditions: time 16-24 hrs
Enterococcus faecium [4] = test: Antibacterial activity against vancomycin-resistant Enterococcus faecium SC-2022-D2-059 harboring VanA phenotype infected in ICR mouse assessed as animal survival rate at 20 mg/kg, iv measured for 7 days relative to control; assay type: functional; conditions: SC-2022-D2-059, 168 h, time 7 day
Enterococcus faecium [5] = test: Antibacterial activity against vancomycin-resistant Enterococcus faecium SC-2022-D2-059 harboring VanA phenotype incubated for 16 to 24 hrs by broth microdilution assay; assay type: functional; conditions: time 16-24 hrs
Pseudomonas aeruginosa = test: Antibacterial activity against Pseudomonas aeruginosa PAO1 incubated for 16 to 24 hrs by broth microdilution assay; assay type: functional; conditions: time 16-24 hrs
Acinetobacter baumannii [6] = test: Antibacterial activity against Acinetobacter baumannii ATCC19606 incubated for 16 to 24 hrs by broth microdilution assay; assay type: functional; conditions: time 16-24 hrs
[7] = Hemolytic activity against rat erythrocytes at 100 ug/ml incubated for 1 hr by absorbance based assay; assay type: toxicity, cell-based, Erythrocyte; conditions: erythrocytes, at 100 µg/mL, read-out: Activity
Klebsiella pneumoniae = test: Antibacterial activity against Klebsiella pneumoniae KP-1 incubated for 16 to 24 hrs by broth microdilution assay; assay type: functional; conditions: time 16-24 hrs
Acinetobacter baumannii [8] = test: Antibacterial activity against carbapenem-resistant Acinetobacter baumannii CRAB-1 clinical isolate incubated for 16 to 24 hrs by broth microdilution assay; assay type: functional; conditions: time 16-24 hrs
Escherichia coli = test: Antibacterial activity against Escherichia coli AB1157 incubated for 16 to 24 hrs by broth microdilution assay; assay type: functional; conditions: time 16-24 hrs
Staphylococcus aureus [9] = test: Antibacterial activity against methicillin-resistant Staphylococcus aureus USA300 LAC infected in female BALB/c mouse assessed as animal survival rate at 7 mg/kg, iv measured for 7 days consecutively relative to control; assay type: functional; conditions: time 7.0 day
Enterococcus faecium [10] = test: Antibacterial activity against vancomycin-resistant Enterococcus faecium Efm-HS-08257 harboring VanM phenotype incubated for 16 to 24 hrs by broth microdilution assay; assay type: functional; conditions: time 16-24 hrs
Staphylococcus aureus [11] = test: Antibacterial activity against vancomycin-intermediate Staphylococcus aureus Mu50 incubated for 16 to 24 hrs by broth microdilution assay; assay type: functional; conditions: time 16-24 hrs
Enterococcus faecium [12] = test: Antibacterial activity against vancomycin-resistant Enterococcus faecium Efm-HS-vb01 harboring VanB phenotype incubated for 16 to 24 hrs by broth microdilution assay; assay type: functional; conditions: time 16-24 hrs
[13] = Half life in CD-1 mouse at 5 mg/kg, iv measured for 0.05 to 24 hrs by UPLC analysis; assay type: ADME, organism-based; conditions: in vivo, time 0.05-24 hrs
Staphylococcus aureus [14] = test: Antibacterial activity against methicillin-resistant Staphylococcus aureus USA300 LAC incubated for 16 to 24 hrs by broth microdilution assay; assay type: functional; conditions: time 16-24 hrs
[15] = AUClast in CD-1 mouse at 5 mg/kg, iv measured for 0.05 to 24 hrs by UPLC analysis; assay type: ADME, organism-based; conditions: in vivo, time 0.05-24 hrs
[16] = AUC (infinity) in CD-1 mouse at 5 mg/kg, iv measured for 0.05 to 24 hrs by UPLC analysis; assay type: ADME, organism-based; conditions: in vivo, time 0.05-24 hrs
Staphylococcus aureus [17] = test: Antibacterial activity against methicillin-resistant Staphylococcus aureus USA300 LAC infected in mouse model; assay type: functional
Staphylococcus aureus [18] = test: Antibacterial activity against vancomycin-intermediate Staphylococcus aureus XN108 infected in CD-1 mouse model assessed as animal survival rate at 7 mg/kg, iv measured for 15 days relative to control; assay type: functional; conditions: XN108, 360 h, time 15 day
[19] = MRT (infinity) in CD-1 mouse at 5 mg/kg, iv measured for 0.05 to 24 hrs by UPLC analysis; assay type: ADME, organism-based; conditions: in vivo, time 0.05-24 hrs
[20] = Volume of distribution at steady state in CD-1 mouse at 5 mg/kg, iv measured for 0.05 to 24 hrs by UPLC analysis; assay type: ADME, organism-based; conditions: in vivo, time 0.05-24 hrs, read-out: Vdss
[21] = Clearance in CD-1 mouse at 5 mg/kg, iv measured for 0.05 to 24 hrs by UPLC analysis; assay type: ADME, organism-based; conditions: in vivo, time 0.05-24 hrs
Staphylococcus aureus [22] = test: Antibacterial activity against methicillin-resistant Staphylococcus aureus […] infected in CD-1 mouse model assessed as animal survival rate at 7 mg/kg, iv measured for 15 days relative to control; assay type: functional; conditions: 360 h, time 15 day

| Structure (SMILES) | fraction unbound [1] | MIC (Enterococcus faecium [2]) | MIC (Enterococcus faecium [3]) | MIC (Pseudomonas aeruginosa) | MIC (Acinetobacter baumannii [6]) | MIC (Klebsiella pneumoniae) | MIC (Acinetobacter baumannii [8]) | MIC (Escherichia coli) | MIC (Enterococcus faecium [10]) | MIC (Staphylococcus aureus [11]) | MIC (Enterococcus faecium [12]) | MIC (Staphylococcus aureus [14]) | further results |
| --- | --- | --- | --- | --- | --- | --- | --- | --- | --- | --- | --- | --- | --- |
| CN[C@H]1C(=O)N[C@@H]2Cc3ccc(cc3)Oc3cc4cc(c3O[C@@H]3O[C@H](C(=O)O)[C@@H](O)[C@H](O)[C@H]3NC(=O)CCCCCCCCC(C)C)Oc3ccc(cc3Cl)[C@@H](O)[C@@H]3NC(=O)[C@H](NC(=O)[C@@H]4NC(=O)[C@@H](NC2=O)c2cc(cc(O)c2Cl)Oc2cc1ccc2O)c1ccc(O)c(c1)-c1c(OC2OC(CO)C(O)C(O)C2O)cc(O)cc1[C@@H](C(=O)NCCCN(C)C)NC3=O (some centres undefined) | 0.07 | – | – | – | – | – | – | – | – | – | – | – | – |
| CCCCCCCCCCNCCN[C@@]1(C)C[C@H](O[C@H]2[C@H](Oc3c4cc5cc3Oc3ccc(cc3Cl)[C@@H](O)[C@@H](NC(=O)[C@@H](CC(C)C)NC)C(=O)N[C@@H](CC(N)=O)C(=O)N[C@H]5C(=O)N[C@H]3C(=O)N[C@H](C(=O)N[C@H](C(=O)O)c5cc(O)c(CNCP(=O)(O)O)c(O)c5-c5cc3ccc5O)[C@H](O)c3ccc(c(Cl)c3)O4)O[C@H](CO)[C@@H](O)[C@@H]2O)O[C@@H](C)[C@H]1O [TELAVANCIN] | 0.1 | – | – | – | – | – | – | – | – | – | – | – | – |
| CN[C@H](CC(C)C)C(=O)N[C@H]1C(=O)N[C@@H](CC(N)=O)C(=O)N[C@H]2C(=O)N[C@H]3C(=O)N[C@H](C(=O)N[C@H](C(=O)O)c4cc(O)cc(O)c4-c4cc3ccc4O)[C@H](O[C@H]3C[C@](C)(N)[C@@H](O)[C@H](C)O3)c3ccc(c(Cl)c3)Oc3cc2cc(c3O[C@@H]2O[C@H](CO)[C@@H](O)[C@H](O)[C@H]2O[C@H]2C[C@](C)(NCc3ccc(-c4ccc(Cl)cc4)cc3)[C@@H](O)[C@H](C)O2)Oc2ccc(cc2Cl)[C@H]1O [ORITAVANCIN] | 0.14 | – | – | – | – | – | – | – | – | – | – | – | – |
| CN[C@H](CC(C)C)C(=O)N[C@H]1C(=O)N[C@@H](CC(N)=O)C(=O)N[C@H]2C(=O)N[C@H]3C(=O)N[C@H](C(=O)N[C@H](C(=O)O)c4cc(O)cc(O)c4-c4cc3ccc4O)[C@H](O)c3ccc(c(Cl)c3)Oc3cc2cc(c3O[C@@H]2O[C@H](CO)[C@@H](O)[C@H](O)[C@H]2O[C@H]2C[C@](C)(N)[C@H](O)[C@H](C)O2)Oc2ccc(cc2Cl)[C@H]1O [VANCOMYCIN] | 0.9 | > 128 µg/mL | 16 µg/mL (≈ 11 µM) | > 128 µg/mL | > 128 µg/mL | > 128 µg/mL | > 128 µg/mL | > 128 µg/mL | > 128 µg/mL | 8 µg/mL (≈ 5.52 µM) | > 128 µg/mL | – | survival at 20 mg/kg (Enterococcus faecium [4]): 0%; MIC (Enterococcus faecium [5]): ≥ 128 µg/mL; hemolysis at 1 h, 100 ug/ml [7]: ~6%; Activity (Staphylococcus aureus [9]): inactive |
| CCCCCCCCC(O)C[S+](C)CCCNCc1c(O)cc2c(c1O)-c1cc(ccc1O)[C@H]1NC(=O)[C@@H]3NC(=O)[C@H](CC(N)=O)NC(=O)[C@H](NC(=O)[C@@H](CC(C)C)NC)[C@H](O)c4ccc(c(Cl)c4)Oc4cc3cc(c4O[C@@H]3O[C@H](CO)[C@@H](O)[C@H](O)[C@H]3O[C@H]3C[C@](C)(N)[C@H](O)[C@H](C)O3)Oc3ccc(cc3Cl)[C@@H](O)[C@H](NC1=O)C(=O)N[C@@H]2C(=O)O.O=C([O-])C(F)(F)F (some centres undefined) | – | 8 µg/mL | 1 µg/mL | > 128 µg/mL | – | > 128 µg/mL | – | 32 µg/mL | 2 µg/mL | 0.25 µg/mL | ≤ 0.063 µg/mL | ≤ 0.063 µg/mL | half-life [13]: 1.13 h; AUC(0-t) [15]: 7050 ng·h/mL; AUC(0-inf) [16]: 7080 ng·h/mL; Efficacy (Staphylococcus aureus [17]): 53.3%; survival at 7 mg/kg (Staphylococcus aureus [18]): 80%; MRT inf [19]: 0.931 h; Vd [20]: 0.672 L/kg; clearance [21]: 12 mL/min/kg; survival at 7 mg/kg (Staphylococcus aureus [22]): 86.7% |
| CN[C@H](CC(C)C)C(=O)N[C@H]1C(=O)N[C@@H](CC(N)=O)C(=O)N[C@H]2C(=O)N[C@H]3C(=O)N[C@H](C(=O)N[C@H](C(=O)NCCC[S+](C)CC(O)COc4ccc(-c5ccc(Cl)cc5)cc4)c4cc(O)cc(O)c4-c4cc3ccc4O)[C@H](O)c3ccc(c(Cl)c3)Oc3cc2cc(c3O[C@@H]2O[C@H](CO)[C@@H](O)[C@H](O)[C@H]2O[C@H]2C[C@](C)(N)[C@H](O)[C@H](C)O2)Oc2ccc(cc2Cl)[C@H]1O.O=C([O-])C(F)(F)F (some centres undefined) | – | 2 µg/mL | 0.5 µg/mL | > 128 µg/mL | 16 µg/mL | > 128 µg/mL | 64 µg/mL | 16 µg/mL | 2 µg/mL | 0.25 µg/mL | 4 µg/mL | ≤ 0.063 µg/mL | – |
| CN[C@H](CC(C)C)C(=O)N[C@H]1C(=O)N[C@@H](CC(N)=O)C(=O)N[C@H]2C(=O)N[C@H]3C(=O)N[C@H](C(=O)N[C@H](C(=O)NCCC[S+](C)CC(O)COc4ccc(OC)cc4)c4cc(O)cc(O)c4-c4cc3ccc4O)[C@H](O)c3ccc(c(Cl)c3)Oc3cc2cc(c3O[C@@H]2O[C@H](CO)[C@@H](O)[C@H](O)[C@H]2O[C@H]2C[C@](C)(N)[C@H](O)[C@H](C)O2)Oc2ccc(cc2Cl)[C@H]1O.O=C([O-])C(F)(F)F (some centres undefined) | – | 32 µg/mL | 4 µg/mL | > 128 µg/mL | 64 µg/mL | > 128 µg/mL | 64 µg/mL | 16 µg/mL | 16 µg/mL | 2 µg/mL | 16 µg/mL | 0.25 µg/mL | – |
| CN[C@H](CC(C)C)C(=O)N[C@H]1C(=O)N[C@@H](CC(N)=O)C(=O)N[C@H]2C(=O)N[C@H]3C(=O)N[C@H](C(=O)N[C@H](C(=O)O)c4cc(O)c(CNCCC[S+](C)C[C@H](O)COc5ccccc5)c(O)c4-c4cc3ccc4O)[C@H](O)c3ccc(c(Cl)c3)Oc3cc2cc(c3O[C@@H]2O[C@H](CO)[C@@H](O)[C@H](O)[C@H]2O[C@H]2C[C@](C)(N)[C@H](O)[C@H](C)O2)Oc2ccc(cc2Cl)[C@H]1O.O=C([O-])C(F)(F)F (some centres undefined) | – | > 128 µg/mL | 8 µg/mL | > 128 µg/mL | > 128 µg/mL | > 128 µg/mL | > 128 µg/mL | 64 µg/mL | 128 µg/mL | 16 µg/mL | 4 µg/mL | 2 µg/mL | – |
